The record followed here is ChEMBL document CHEMBL1201862, “PubChem BioAssay data set” (2004).

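Values below derive from 48-hour exposures of cells grown in 96-well plates, with endpoints linearly interpolated between the two concentrations bracketing the appropriate inhibition level. The concentration for 50% growth inhibition is given as GI50.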 Activity calls are given as the source filed them. Cut-off read from the data, not from the text of the source: active = GI50 up to about 1.1 µM and inactive = higher. Where only a bound is given, the exact number is not on record here.

As a reminder, the GI50 is the concentration at which growth is held to half of that of the control.

Common to all, as to test: DTP human tumour cell line panel, 48 h
Assay [1] has as its system MOLT-4.
The test system of assay [2] is UACC-257.
Assay [3] relates to OVCAR-5.
In assay [4] the test system is MDA-MB-435.
The test system of assay [5] is HOP-92.
Assay [6] has as its system HCC 2998.
Assay [7] concerns SF-295.
Assay [8] concerns SN12C.
For assay [9], the system named is Hs-578T.
Assay [10] relates to MDA-N.
In assay [11] the test system is HCT-15.
In assay [12] the test system is SK-OV-3.
Assay [13] has as its system OVCAR-4.
Assay [14] deals with NCI-H226.
Assay [15] concerns T47D.
Assay [16] has as its system U-251.
In assay [17] the test system is MCF7.
Assay [18] has as its system 786-0.
In assay [19] the test system is UO-31.
The subject of assay [20] is HOP-62.

On to `C=CCOc1cc(NC(=S)c2ccoc2C)ccc1OC`, for which the GI50 is > 100 µM (inactive) in assay [1]; > 100 µM (inactive) in assay [2]; > 100 µM (inactive) in [3]; > 100 µM (inactive) in assay [4]; 27.9 µM (inactive) in [5]; > 100 µM (inactive) in assay [6]. Moreover, the GI50 in assay [7] is > 100 µM (inactive); in assay [8], > 100 µM (inactive); in assay [9], > 100 µM (inactive); in assay [10] it was > 100 µM (inactive); in assay [11], more than 100 µM; in [12] it was > 100 µM (inactive). The GI50 in [13] is > 100 µM (inactive); in [14], > 100 µM (inactive); in assay [15], > 100 µM (inactive); in [16], 58.9 µM (inactive); in [17], > 100 µM (inactive); in assay [18], > 100 µM (inactive). For the same compound, the GI50 in assay [19] is > 100 µM (inactive).
With `O=C1CC=C2C3CC4N(CCC45c4ccccc4N1C25)C/C3=C\CO` (centres undefined), the GI50 in assay [1], in assay [2], in [3], in assay [4], in assay [5] and in assay [6] was > 100 µM (inactive) throughout. Also, the GI50 in [7] is > 100 µM (inactive); in [8], > 100 µM (inactive); in assay [9], > 100 µM (inactive); in [10], > 100 µM (inactive); in assay [11], more than 100 µM; in assay [12] it was > 100 µM (inactive). Besides, the GI50 in assay [13], in [14], in assay [15], in assay [16], in assay [17] and in assay [18] was > 100 µM (inactive) in each case. In addition, in [19], the GI50 is > 100 µM (inactive).
As for `C/C=C\C(CC(=O)NCCC1CN(S(=O)(=O)c2ccc(C)cc2)c2ccccc21)CC(=O)OC` (centres undefined), the GI50 in assay [1], in assay [20], in assay [2], in [3], in assay [4] and in assay [5] was > 100 µM (inactive) in each case. Further, the GI50 in assay [6] is > 100 µM (inactive); in [7] it was > 100 µM (inactive); in [9] it was > 100 µM (inactive); in assay [10], > 100 µM (inactive); in assay [11], more than 100 µM; in assay [12], > 100 µM (inactive). Moreover, the GI50 in assay [13], in assay [15], in [16], in [17], in assay [18] and in [19] was > 100 µM (inactive) in each case.
`C[C@@]12[C@H]3CC[C@@H]1[C@H](O)C(=O)N2CC3`: the GI50 in assay [1], in assay [20], in assay [2], in assay [3], in [4] and in assay [5] was > 100 µM (inactive) each time. Besides, the GI50 is > 100 µM (inactive) in assay [6]; > 100 µM (inactive) in assay [7]; > 100 µM (inactive) in [9]; > 100 µM (inactive) in [10]; more than 100 µM in [11]; > 100 µM (inactive) in assay [12]. For the same compound, the GI50 in [13], in [14], in assay [15], in assay [16], in assay [17] and in assay [18] was > 100 µM (inactive) each time. The GI50 in [19] is > 100 µM (inactive).
As for `COc1ccc2nc3cccc([N+](=O)[O-])c3c(NCCC(=O)O)c2c1`, the GI50 is 5.22 µM (inactive) in assay [1]; > 10 µM (inactive) in assay [20]; > 10 µM (inactive) in assay [2]; > 10 µM (inactive) in [3]; > 10 µM (inactive) in assay [4]; > 10 µM (inactive) in [5]. Further, the GI50 is > 10 µM (inactive) in assay [6]; > 10 µM (inactive) in assay [7]; > 10 µM (inactive) in assay [8]; 9.14 µM (inactive) in assay [9]; > 10 µM (inactive) in assay [10]; more than 10 µM in assay [11]. The GI50 in assay [12] is > 10 µM (inactive); in assay [13] it was > 10 µM (inactive); in assay [14], > 10 µM (inactive); in [15], 7.5 µM (inactive); in [16], > 10 µM (inactive); in assay [17], 5.78 µM (inactive). For the same compound, the GI50 in assay [18] was > 10 µM (inactive).
On to `COc1cc2c(cc1O)C1Cc3ccc(OC)c(O)c3C[N+]1(C)CC2` (centres undefined), for which the GI50 in [1], in assay [20], in assay [3], in [4], in assay [5] and in [6] was > 100 µM (inactive) each time. Also, the GI50 in assay [7] is > 100 µM (inactive); in assay [8] it was > 100 µM (inactive); in assay [9], > 100 µM (inactive); in assay [10], > 100 µM (inactive); in assay [11], more than 100 µM; in assay [12] it was > 100 µM (inactive). The GI50 in assay [13], in [14], in assay [15], in assay [16], in assay [17] and in assay [18] was > 100 µM (inactive) each time. Further, the GI50 in [19] is > 100 µM (inactive).
As to `CC(=O)n1cc(C2CC23N=C(c2ccccc2)OC3=O)c2ccccc21` (centres undefined), the GI50 in assay [20] is 21.4 µM (inactive); in assay [2] it was 15.7 µM (inactive); in assay [3] it was 22 µM (inactive); in assay [4] it was 21.1 µM (inactive); in assay [5], 22.1 µM (inactive); in assay [6], 13.1 µM (inactive). Moreover, the GI50 was 36.7 µM (inactive) in [7]; 14.7 µM (inactive) in assay [8]; 24.1 µM (inactive) in assay [9]; 23.9 µM (inactive) in [10]; 20.3 µM in assay [11]; 49.9 µM (inactive) in [12]. The GI50 in assay [13] is 16.3 µM (inactive); in assay [14], 23.6 µM (inactive); in assay [15] it was 34.9 µM (inactive); in assay [16], 18.1 µM (inactive); in assay [17] it was 19.1 µM (inactive); in [18] it was 14.8 µM (inactive). Further, the GI50 in assay [19] is 15.5 µM (inactive).
As to `Cc1ccc(Nc2[nH]c(=O)[nH]c(=O)c2C)cc1Cl`, the GI50 was > 100 µM (inactive) in assay [20]; > 100 µM (inactive) in [2]; > 100 µM (inactive) in assay [3]; > 100 µM (inactive) in assay [4]; 76 µM (inactive) in assay [5]; > 100 µM (inactive) in [6]. Besides, the GI50 in assay [7] was 26.2 µM (inactive); in assay [8] it was > 100 µM (inactive); in [9] it was 70 µM (inactive); in assay [10], > 100 µM (inactive); in assay [11] it was 91.6 µM; in [12] it was > 100 µM (inactive). The GI50 is > 100 µM (inactive) in [13]; > 100 µM (inactive) in [14]; > 100 µM (inactive) in assay [15]; > 100 µM (inactive) in assay [16]; 19.5 µM (inactive) in assay [17]; > 100 µM (inactive) in assay [18]. Further, the GI50 in [19] is 30.4 µM (inactive).
On to `CC1=N[C@](C)(C2CC3C=CC2C3=O)COC1=O` (some centres undefined), for which the GI50 in [1], in assay [20], in assay [2], in assay [3], in [4] and in assay [5] was > 100 µM (inactive) throughout. For the same compound, the GI50 in [6], in assay [7], in [8], in assay [9], in assay [10] and in assay [12] was > 100 µM (inactive) in each case. The GI50 in assay [13], in assay [14], in assay [15], in [16], in assay [17] and in [18] was > 100 µM (inactive) each time. In addition, in assay [19], the GI50 is > 100 µM (inactive).
Turning to `Cc1nc2c(sc3nc4ccccc4n32)c(=O)[nH]1`, the GI50 in assay [1], in assay [20], in [2], in assay [3], in assay [4] and in assay [5] was > 100 µM (inactive) in each case. Also, the GI50 in assay [6] was > 100 µM (inactive); in assay [7] it was > 100 µM (inactive); in assay [9] it was > 100 µM (inactive); in assay [10] it was > 100 µM (inactive); in assay [11] it was more than 100 µM; in assay [12] it was 73.1 µM (inactive). The GI50 in assay [13], in [14], in assay [15], in assay [16], in assay [17] and in assay [18] was > 100 µM (inactive) throughout. The GI50 in assay [19] was > 100 µM (inactive).
